Results: ChEMBL document CHEMBL1201862, “PubChem BioAssay data set” (2004)
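Grown in 96-well plates, cells were treated for 48 hours with each compound at five concentrations. Insufficient inhibition: endpoint recorded as highest concentration tested. Here, GI50 denotes the concentration required for 50% inhibition of growth.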 Calls of active or inactive are those of the source. Rule as the data show it: active = GI50 up to about 1.1 µM and inactive = higher.

Legend:
Assay in all cases: DTP human tumour cell line panel, 48 h
[1] = system: CCRF-CEM
[2] = system: DMS-114
[3] = system: HCC 2998
[4] = system: HCT-15
[5] = system: HT-29
[6] = system: LOX IMVI
[7] = system: M14
[8] = system: M19-MEL
[9] = system: MOLT-4
[10] = system: NCI-H460
[11] = system: NCI-H522
[12] = system: RXF 393
[13] = system: SF-268
[14] = system: SF-539
[15] = system: SK-MEL-2
[16] = system: SNB-19
[17] = system: U-251
[18] = system: UACC-62

Row | Structure (SMILES) | GI50 [1] | GI50 [2] | GI50 [3] | GI50 [4] | GI50 [5] | GI50 [6] | GI50 [7] | GI50 [8] | GI50 [9] | GI50 [10] | GI50 [11] | GI50 [12] | GI50 [13] | GI50 [14] | GI50 [15] | GI50 [16] | GI50 [17] | GI50 [18]
1 | COc1cc(C=O)c(-c2cc(OC)c(OC)cc2C=O)cc1OC | 30.1 µM (inactive) | 24.3 µM (inactive) | > 100 µM (inactive) | > 100 µM | 76.2 µM (inactive) | 13.7 µM (inactive) | > 100 µM (inactive) | > 100 µM (inactive) | 50.6 µM (inactive) | 90.4 µM (inactive) | > 100 µM (inactive) | 24.5 µM (inactive) | 46.7 µM (inactive) | > 100 µM (inactive) | 67 µM (inactive) | > 100 µM (inactive) | > 100 µM (inactive) | > 100 µM (inactive)
2 | O=c1oc2c(O)c(O)c(O)c3c(=O)oc4c(O)c(O)cc1c4c23 [FLAVELLAGIC ACID] | 29.2 µM (inactive) | 29.7 µM (inactive) | > 100 µM (inactive) | > 100 µM | 39.5 µM (inactive) | 18 µM (inactive) | > 100 µM (inactive) | 9.79 µM (inactive) | 25.9 µM (inactive) | > 100 µM (inactive) | 46.1 µM (inactive) | > 100 µM (inactive) | > 100 µM (inactive) | > 100 µM (inactive) | > 100 µM (inactive) | > 100 µM (inactive) | 19.3 µM (inactive) | 57.3 µM (inactive)
3 | O=S(=O)(/C=C/CS(=O)(=O)c1ccccc1)c1ccccc1 | 36.1 µM (inactive) | 23.4 µM (inactive) | 23.9 µM (inactive) | 17.5 µM | 37.8 µM (inactive) | 17.3 µM (inactive) | 23 µM (inactive) | 36.1 µM (inactive) | 21.2 µM (inactive) | 21.9 µM (inactive) |  | 26.9 µM (inactive) | 26.9 µM (inactive) | 20.3 µM (inactive) | 6.47 µM (inactive) | 34.7 µM (inactive) | 25.8 µM (inactive) | 21.5 µM (inactive)
4 | CC[As](CC)SCC1OC(OC(C)=O)C(OC(C)=O)C(OC(C)=O)C1OC(C)=O (stereo unspecified) | 3.05 µM (inactive) | 4.81 µM (inactive) | 17.5 µM (inactive) | 13.6 µM | 21.5 µM (inactive) | 15.2 µM (inactive) | 12.3 µM (inactive) | 11.8 µM (inactive) | 16.5 µM (inactive) | 16.8 µM (inactive) | 1.75 µM (inactive) | 3.26 µM (inactive) | 11.6 µM (inactive) | 13.1 µM (inactive) | 12.6 µM (inactive) | 17.9 µM (inactive) | 12.8 µM (inactive) | 13.9 µM (inactive)
